One assay has as its target T1, canine TRPM8 (Canis lupus familiaris, UniProt Q1A7N1).
T1 construct: expressed in transfected cells
Nature of the assay: TRPM8 patch clamp assay (whole-cell, HEK293 cells). It is filed as cell-based. The procedure: For patch clamp experiments, HEK293 cells stably transfected with canine TRPM8 were cultured in DMEM supplemented with 10% fetal bovine serum, 100 units/ml penicillin, 100 μg/ml streptomycin and 1 mg/ml G418. Cells were maintained at 37° C. and in 5% CO2.
The extracellular solution contained (in mM): NaCl, 132; EGTA, 1; KCl, 5.4; MgCl2, 0.8; HEPES, 10; glucose, 10; pH=7.4. Recordings were performed using the conventional whole-cell patch clamp technique, 1-2 days after plating cells onto glass coverslips at densities appropriate for single cell recording. Currents were amplified by a patch clamp amplifier and filtered at 2 kHz (Axopatch 200B, Molecular Devices, Union City, Calif.). Menthol (100 μM) was applied to the cell at 0.5 ml/min via a gravity-fed perfusion system. Recordings involving menthol activation were performed at 22° C.
In experiments where temperatures were varied, temperature ramps were generated by cooling the perfusate in an in-line cooler (Model SC-20, Warner Instruments, Hamden, Conn.) controlled by a temperature controller (Model CL-100, Warner Instruments). The temperature in the vicinity of the recorded cell was measured with a custom-made miniature thermo-microprobe connected to a monitoring thermometer (Model TH-8, Physitemp, Clifton, N.J.), and sampled using Digidata 1322A and pClamp 9.0 (Molecular Devices), as were the currents concurrently measured in the whole-cell patch clamp mode. The current was continuously sampled (at 100 Hz) at a holding potential of −60 mV.
Compounds were diluted from 10 mM DMSO stocks (stored at −20° C.) into an extracellular solution either containing 100 μM menthol or subjecting to cooling. Increasing concentrations of a compound were applied to a cell in a cumulative manner and concentration-dependent responses were measured after steady-state activation was achieved by either 100 μM menthol or cooling to 10° C. A saturating concentration of a reference antagonist was applied at the end of an experiment (either in the presence of 100 μM menthol or 10° C. temperature) to establish the baseline from which all the other measurements were subtracted.
Percentage inhibition by a compound was calculated as follows: 100×(1−Icomp/I0); where Icomp and I0 are steady-state current amplitudes in either the presence or absence of a concentration of the compound.
(In patch-clamp work, channel activity is measured electrically.)

A further assay deals with T2, rat TRPM8 (Rattus norvegicus, UniProt Q8R455).
T2 construct: the full-length cDNAs encoding human and rat TRPM8 were subcloned; expressed in transfected cells; host or cells: HEK293 (transient, FuGENE 6, pCI-NEO vector)
Nature of the assay: In vitro rat TRPM8 functional assay (Ca2+ dye, FDSS, 100 nM icilin). The assay is classed as cell-based. The following applies: HEK293 cells transiently transfected with rat TRPM8, read-out: rTRPM8 IC50. Here is the method:
(§1) For functional expression of TRPM8, the full-length cDNAs encoding human and rat TRPM8 were subcloned into pCl-NEO mammalian expression vectors. The expression constructs were transiently transfected into HEK293 cells according to the FuGENE 6 transfection reagent® (ROCHE) instructions. HEK293 cells were routinely grown as monolayers in Dulbecco's minimum essential medium supplemented with 10% FBS, 1 mM L-glutamine, 100 units/mL penicillin and 100 ug/mL streptomycin. Cells were maintained in 5% CO2 at 37° C. […] Following incubation, plates were inserted into a FDSS instrument, where cells were challenged with a compound of Formula (I) (at varying concentrations) and intracellular Ca^2+ was measured for 5 min prior to the addition of 100 nM icilin. IC50 values for compounds of the present invention were determined from eight-point dose-response studies
(§2) Maximal fluorescence intensity (FI) achieved upon addition of icilin was exported from the FDSS and further analyzed using GraphPad Prism 3.02 (Graph Pad Software Inc., CA, U.S.A.). […] The dose response curves from the average of quadruplicate wells for each data point were analyzed by using nonlinear regression of either sigmoidal dose response or sigmoidal dose response (variable slope). Finally, the IC50 values were calculated with the best-fit dose curve determined by Prism.

The next assay deals with rats. Briefly: Reversal of icilin-induced behaviors (wet-dog shakes) in rats. It is filed as in vivo. Conditions: rat, 1 h post-icilin. The procedure: In this paradigm, icilin-induced shaking was counted for 10 minutes followed by administration of a compound of Formula (I). The diminution of shaking behavior is represented as a percent inhibition relative to icilin-induced shakes in the absence of test compound administration, as described by the following formula: % Inhibition=[1−(WDS count following test compound dose/WDS count prior to test compound dose)]×100.

The target of another assay is T3, human TRPM8 (Homo sapiens, UniProt Q7Z2W7).
T3 construct: the full-length cDNAs encoding human and rat TRPM8 were subcloned; expressed in transfected cells; host or cells: HEK293 (transient, FuGENE 6, pCI-NEO vector)
Nature of the assay: In vitro human TRPM8 functional assay (Ca2+ dye, FDSS, 100 nM icilin). The assay is classed as cell-based. The following applies: HEK293 cells transiently transfected with human TRPM8, read-out: hTRPM8 IC50. Here is the method: as §1, §2

In the next assay the test system is male SD rats. Nature of the assay: Chronic constriction injury (CCI) model of neuropathic pain, acetone-induced hypersensitivity. The assay is classed as in vivo. Conditions: rat; for ED50: po. Here is the method:
Through the mesh floor a series of five applications of acetone (0.05 mL/application) was sprayed onto the bottom of the paw using a multidose syringe device. A positive response took the form of an abrupt withdrawal or lifting of the paw. The percentage of positive responses from the five trials represented the individual's overall response that was then averaged over the entire treatment group. […] An ascending dose response relationship (as in Table 10 below) was generated by addition of successive doses of test compound followed by re-assessment of behavior.

Setting [1] is: IC50, mode of activation Menthol (100 μM), HEK293 cells stably transfected with canine TRPM8, 100 μM menthol, 22° C.

One may read the IC50 as the concentration needed to halve the response being measured. As a reminder, the ED50 is the dose that gives a 50% effect, or the effect in half of the subjects. A word on the % Inhibition: it is the change of the read-out against control, counted positive when it falls.

T1 sequence (Q1A7N1 1-1104): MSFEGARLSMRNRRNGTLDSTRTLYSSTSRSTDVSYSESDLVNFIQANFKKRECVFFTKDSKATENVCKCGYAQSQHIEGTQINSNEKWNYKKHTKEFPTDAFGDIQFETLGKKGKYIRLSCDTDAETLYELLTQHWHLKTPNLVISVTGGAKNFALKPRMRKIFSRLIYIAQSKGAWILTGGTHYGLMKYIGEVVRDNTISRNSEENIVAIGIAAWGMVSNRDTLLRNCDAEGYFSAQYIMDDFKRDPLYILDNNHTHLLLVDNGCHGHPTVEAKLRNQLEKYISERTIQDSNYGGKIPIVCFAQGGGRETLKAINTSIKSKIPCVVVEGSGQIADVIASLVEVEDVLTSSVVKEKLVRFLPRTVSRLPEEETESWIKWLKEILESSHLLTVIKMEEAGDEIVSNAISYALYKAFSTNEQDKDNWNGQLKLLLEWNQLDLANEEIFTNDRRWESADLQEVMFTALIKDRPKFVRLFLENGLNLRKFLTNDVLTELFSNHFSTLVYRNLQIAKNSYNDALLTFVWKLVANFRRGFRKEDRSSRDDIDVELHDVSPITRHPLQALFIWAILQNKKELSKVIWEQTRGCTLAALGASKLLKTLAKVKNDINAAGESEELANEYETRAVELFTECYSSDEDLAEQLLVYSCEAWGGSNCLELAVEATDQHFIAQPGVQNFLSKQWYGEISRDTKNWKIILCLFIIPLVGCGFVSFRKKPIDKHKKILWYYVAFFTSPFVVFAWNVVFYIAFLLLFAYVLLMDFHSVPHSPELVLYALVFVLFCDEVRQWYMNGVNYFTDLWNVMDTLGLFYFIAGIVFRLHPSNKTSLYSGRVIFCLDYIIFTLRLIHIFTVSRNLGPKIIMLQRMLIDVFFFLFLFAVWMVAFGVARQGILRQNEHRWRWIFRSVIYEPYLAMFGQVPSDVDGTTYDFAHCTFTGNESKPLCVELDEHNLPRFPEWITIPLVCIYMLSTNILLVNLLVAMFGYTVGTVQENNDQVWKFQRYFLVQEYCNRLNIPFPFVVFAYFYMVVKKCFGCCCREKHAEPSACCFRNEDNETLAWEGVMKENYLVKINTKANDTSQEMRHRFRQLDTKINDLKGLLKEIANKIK
T3 sequence (Q7Z2W7 whole entry): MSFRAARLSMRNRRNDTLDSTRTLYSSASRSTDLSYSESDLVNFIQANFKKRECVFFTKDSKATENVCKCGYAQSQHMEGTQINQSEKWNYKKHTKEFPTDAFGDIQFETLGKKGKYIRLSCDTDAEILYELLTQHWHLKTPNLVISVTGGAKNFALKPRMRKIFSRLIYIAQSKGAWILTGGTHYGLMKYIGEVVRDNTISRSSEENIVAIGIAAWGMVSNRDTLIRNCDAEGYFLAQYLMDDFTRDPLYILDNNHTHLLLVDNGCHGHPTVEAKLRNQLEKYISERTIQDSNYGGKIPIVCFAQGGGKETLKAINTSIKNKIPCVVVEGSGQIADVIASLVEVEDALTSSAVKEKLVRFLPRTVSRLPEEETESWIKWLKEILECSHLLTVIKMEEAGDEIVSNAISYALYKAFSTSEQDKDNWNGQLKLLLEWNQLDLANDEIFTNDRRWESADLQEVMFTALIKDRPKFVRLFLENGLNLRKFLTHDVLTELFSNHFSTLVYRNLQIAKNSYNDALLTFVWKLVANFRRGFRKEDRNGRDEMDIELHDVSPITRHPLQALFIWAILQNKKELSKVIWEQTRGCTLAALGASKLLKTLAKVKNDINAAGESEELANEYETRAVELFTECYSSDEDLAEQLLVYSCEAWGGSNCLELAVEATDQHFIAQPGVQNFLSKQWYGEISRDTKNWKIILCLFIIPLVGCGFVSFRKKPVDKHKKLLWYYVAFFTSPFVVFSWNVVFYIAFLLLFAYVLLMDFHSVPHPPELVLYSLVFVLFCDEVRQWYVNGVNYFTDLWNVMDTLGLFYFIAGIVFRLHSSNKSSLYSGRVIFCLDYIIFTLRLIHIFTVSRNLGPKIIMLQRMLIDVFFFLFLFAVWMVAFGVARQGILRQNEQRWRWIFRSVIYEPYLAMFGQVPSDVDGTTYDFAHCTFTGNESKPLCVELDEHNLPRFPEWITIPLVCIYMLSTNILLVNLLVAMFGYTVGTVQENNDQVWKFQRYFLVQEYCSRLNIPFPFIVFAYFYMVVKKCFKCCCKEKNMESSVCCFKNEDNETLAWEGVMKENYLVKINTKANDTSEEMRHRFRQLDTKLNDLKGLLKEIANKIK
T2 sequence (Q8R455 whole entry): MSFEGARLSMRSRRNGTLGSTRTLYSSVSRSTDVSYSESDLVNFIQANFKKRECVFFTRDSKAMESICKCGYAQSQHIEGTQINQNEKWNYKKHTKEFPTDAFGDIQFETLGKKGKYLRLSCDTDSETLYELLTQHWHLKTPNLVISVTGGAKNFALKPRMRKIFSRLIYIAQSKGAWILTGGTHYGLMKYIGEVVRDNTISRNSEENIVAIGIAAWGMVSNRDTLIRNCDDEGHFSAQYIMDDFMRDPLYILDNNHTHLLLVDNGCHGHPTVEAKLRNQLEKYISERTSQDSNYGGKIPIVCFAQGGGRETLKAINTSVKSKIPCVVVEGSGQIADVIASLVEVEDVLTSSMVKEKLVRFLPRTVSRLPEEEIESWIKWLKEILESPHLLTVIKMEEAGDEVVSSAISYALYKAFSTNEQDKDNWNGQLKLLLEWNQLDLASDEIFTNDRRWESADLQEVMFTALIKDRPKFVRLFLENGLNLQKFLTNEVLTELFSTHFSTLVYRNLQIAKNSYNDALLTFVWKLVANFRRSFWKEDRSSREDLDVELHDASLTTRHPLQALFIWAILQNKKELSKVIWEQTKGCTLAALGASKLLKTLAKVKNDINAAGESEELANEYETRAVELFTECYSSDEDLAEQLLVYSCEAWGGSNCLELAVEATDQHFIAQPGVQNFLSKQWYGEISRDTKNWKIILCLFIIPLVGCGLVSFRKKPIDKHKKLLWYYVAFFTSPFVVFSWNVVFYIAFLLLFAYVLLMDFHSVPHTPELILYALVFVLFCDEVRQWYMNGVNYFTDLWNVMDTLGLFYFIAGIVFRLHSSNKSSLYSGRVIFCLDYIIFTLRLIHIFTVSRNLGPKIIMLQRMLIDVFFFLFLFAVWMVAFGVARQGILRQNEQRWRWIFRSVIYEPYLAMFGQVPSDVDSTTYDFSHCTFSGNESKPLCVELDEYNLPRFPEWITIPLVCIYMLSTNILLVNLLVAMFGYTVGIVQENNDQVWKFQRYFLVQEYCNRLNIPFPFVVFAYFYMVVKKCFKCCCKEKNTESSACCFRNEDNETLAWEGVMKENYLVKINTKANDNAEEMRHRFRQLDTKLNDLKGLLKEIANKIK

In the case of `CC(C)OP(=O)(OC(C)C)[C@@H](Cc1ccc(F)c(F)c1)c1sc2ccccc2c1Br` [Cpd 234, (S)-[1-(3-Bromo-benzo[b]thiophen-2-yl)-2-(3,4-difluoro-phenyl)-ethyl]-phosphonic acid diisopropyl ester], the IC50 came out at 1.6 nM on canine TRPM8 (IC50, mode of activation Cold (10° C.), HEK293 cells stably transfected with canine TRPM8, cooling to 10° C.); 4.7 nM against canine TRPM8 (setting [1]); 0.053 nM at rat TRPM8; 0.054 nM at human TRPM8. In addition, the ED50 in the assay on rats (po) came out at 28.5 mg/kg; in the assay on male SD rats (preRx 1 hr), 14.8 mg/kg. For the same compound, the “% Inhibition” value in the assay on rats (10 mg/kg p.o.) came out at 24.4%; in the assay with rats (30 mg/kg p.o.), 56.1%; in the assay with rats (100 mg/kg p.o.) it was 75.1%. In addition, the “% of Allodynic Baseline” value in the assay on male SD rats (3 mg/kg p.o., preRx 1 hr) is 16.7%; with male SD rats (3 mg/kg p.o., preRx 2 hr) it was 10.0%; in the assay on male SD rats (10 mg/kg p.o., preRx 1 hr), 51.7%; in the assay with male SD rats (30 mg/kg p.o., preRx 1 hr) it was 59.6%; in the assay on male SD rats (30 mg/kg p.o., preRx 2 hr) it was 56.7%; in the assay on male SD rats (100 mg/kg p.o., preRx 1 hr), 83.1%. Moreover, in the assay with male SD rats (100 mg/kg p.o., preRx 2 hr), the “% of Allodynic Baseline” value amounted to 93.3%.

In the case of `CC(C)OP(=O)(OC(C)C)[C@@H](Cc1ccc(F)c(C(F)(F)F)c1)c1sc2ccccc2c1Br` [Cpd 242, (S)-[1-(3-Bromo-benzo[b]thiophen-2-yl)-2-(4-fluoro-3-trifluoromethyl-phenyl)-ethyl]-phosphonic acid diisopropyl ester], the IC50 on canine TRPM8 (setting [1]) was 0.4 nM; at rat TRPM8, 0.056 nM; at human TRPM8, 0.049 nM. Besides, in the assay with rats (30 mg/kg p.o.), the “% Inhibition” value is listed as 79.9%. In addition, it took a dose of 18 mg/kg to reach the 50% effect level with male SD rats (preRx 3 hr) (ED50). Also, the “% of Allodynic Baseline” value in the assay on male SD rats (3 mg/kg p.o., preRx 3 hr) was found to be 15.0%; in the assay on male SD rats (10 mg/kg p.o., preRx 3 hr), 30.0%; in the assay with male SD rats (30 mg/kg i.p., preRx 2 hr), 63.3%; in the assay on male SD rats (30 mg/kg p.o., preRx 3 hr) it was 66.7%; with male SD rats (100 mg/kg p.o., preRx 3 hr), 86.7%.

(Values after patent US20080287398A1, “COLD MENTHOL RECEPTOR-1 ANTAGONISTS” (priority 2007, published 2008).)
